Data as given in US20260132123A1, “ABAD INHIBITOR COMPOUNDS” (UNIVERSITY COURT OF THE UNIVERSITY OF ST ANDREWS, priority 2021, published 2026).
pEC50: −log10 of the molar value.

Biological target: T1, 17β-HSD10 (Homo sapiens, UniProt Q99714)
T1 construct: Histev (histidine tag with TEV site) (N, cleaved yes); made in house; host or cells: E. coli BL21-CodonPlus
T1 sequence (Q99714 1-261): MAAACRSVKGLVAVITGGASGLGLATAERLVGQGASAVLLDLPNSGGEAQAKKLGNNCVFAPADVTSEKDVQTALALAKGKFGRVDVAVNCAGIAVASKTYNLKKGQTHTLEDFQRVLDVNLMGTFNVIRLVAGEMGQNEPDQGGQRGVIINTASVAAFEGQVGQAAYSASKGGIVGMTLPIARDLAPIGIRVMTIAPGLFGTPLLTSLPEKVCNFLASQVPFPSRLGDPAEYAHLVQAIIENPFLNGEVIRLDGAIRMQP
Experiment: 17β-HSD10 (ABAD) enzyme inhibition assay, NADH oxidation read at 340 nm (primary screen and dose response)
Type: biochemical
Settings: for pEC50 / Max. Effect (%) / Hill Slope / Max. Fit / Min. Fit: recombinant 17βHSD10 enzyme assay; for Hill Slope / Max. Fit / Min. Fit: curve fit
Method: Cell pellets of E. coli BL21-CodonPlus cells containing Histev-17β-HSD10 protein were re-suspended for 30 min, 4° C., in lysis buffer (20 mM NaH2PO4, 30 mM imidazole, 500 mM NaCl, 10% (v/v) glycerol, pH 7.5) with the addition of complete ethylenediaminetetraacetic acid (EDTA)-free protease inhibitor tablets (Roche), lysozyme (1 mg/mL), deoxyribonuclease (DNase) (20 μg/mL) and Triton X-100 (0.1% (v/v)). Cells were lysed by passage through a cell disruptor at 30 kPSI (Constant Systems Ltd) and the lysate was cleared by centrifugation (Sorvall Evolution RC, rotor S5-34 55-34 angle, 20500 rpm, 30 min, 4° C.). Cleared lysate was filtered (0.45 μm membrane; Whatman) then applied to a Ni-nitrilotriacetic acid (NTA) (GE Healthcare) column pre-washed with lysis buffer and protein eluted with 300 mM imidazole buffer (20 mM NaH2PO4, 300 mM imidazole, 500 mM NaCl, 10% (v/v) glycerol, pH 7.5). […] Protein digestion and dialysis was carried out at 4° C. for 16 h.
Complete digestion was firstly checked by sodium dodecyl sulfate-polyacrylamide gel electrophoresis (SDS-PAGE), then fully digested protein was passed over a second Ni-column and the flow-through, containing 17β-HSD10 protein, was concentrated using a Vivaspin column (10 kDa MWCO, GE Healthcare) to ˜7 mL before final purification using gel filtration to remove imidazole (Hi-Load 16/60 Superdex 75 prep grade column, GE Healthcare, flow rate 1.5 mL/min). Protein was eluted in gel filtration buffer (10 mM trisaminomethane (Tris-HCl), 150 mM NaCl, 10% glycerol, pH 7.5) and concentrated (Vivaspin column (10 kDa molecular weight cut off (MWCO), GE Healthcare)) to 10 mg/mL. Aliquots (10 μL) were taken and flash frozen in liquid nitrogen before final storage at −80° C.
The assay buffer used contains: 10 mM Tris. HCl (pH 7.4), 150 mM NaCl, 1 mM DTT, 0.005% Tween (polysorbate 20) and 0.01% bovine serum albumin (BSA). As indicated for some experiments the assay buffer was supplemented with 100 units/ml bovine liver catalase. All experiments were conducted in clear bottom 384-well or 1536-well low volume microplates (Corning) with a final assay volume of 20 μL and the reaction progress was monitored by oxidation of NADH as determined by reduction in absorbance at 340 nm read on the EnVision plate reader (PerkinElmer).
For primary screening an endpoint assay format was adopted in which an Echo acoustic liquid dispenser (Labcyte) was used to transfer 20 nL of either reference standard, dimethylsulfoxide (DMSO) control ([…] final assay concentration (FAC)) or test compounds (10 μM FAC) to the assay plate. 10 μL of 17β-HSD10 enzyme in assay buffer (2.5 nM, FAC) was then added to the plates using the Preddator liquid handling robot (Redd and Whyte) and plates were incubated at room temperature for 15 minutes. 10 μL of substrate mixture (100 μM acetoacetyl-CoA and 100 μM NADH, FAC) was added with the Preddator. To start the reaction and the plates were left to incubate for 35 minutes at room temperature before the absorbance at 340 nm was read on the EnVision plate reader (PerkinElmer). For kinetic assay format and dose response follow up experiments the same protocol was adopted but the absorbance at 340 nm was monitored constantly for 45 minutes from immediately after the reaction was started.

Compound	pEC50	Max. Effect (%)	Hill Slope	Max. Fit	Min. Fit	17β-HSD10 / ABAD activity in words (SAR discussion)
COc1cccc(-c2ccccc2[C@@H]2CCCN2C(=O)c2cocn2)c1 (racemic) [ESC1002598]	< 4.70	50	–	–	–	–
COc1cccc(-c2ccccc2[C@@H]2CCCN2C(=O)c2nc[nH]n2)c1 (racemic) [ESC1002599]	< 4.70	10	–	–	–	–
COc1cccc(-c2ccccc2[C@@H]2CCCN2C(=O)c2ncc[nH]2)c1 (racemic) [ESC1002600]	5.36	75	1.2	86	1	–
COc1cccc(-c2ccccc2[C@@H]2CCCN2C(=O)c2cn[nH]c2)c1 (racemic) [ESC1002601]	5.20	82	0.74	115	−7	–
COc1cccc(-c2ccccc2[C@@H]2CCCN2C(=O)C23CC(C2)C3)c1 (racemic) [ESC1002602]	< 4.70	43	–	–	–	–
COc1cccc(-c2ccccc2[C@@H]2CCCN2C(=O)C(C)C)c1 (racemic) [ESC1002603]	< 4.70	21	–	–	–	–
COc1cccc(-c2ccccc2[C@@H]2CCCN2C(=O)C(C)(C)C)c1 (racemic) [ESC1002604]	< 4.70	20	–	–	–	–
COc1cccc(-c2ccccc2[C@@H]2CCCN2C(=O)c2[nH]ncc2Cl)c1 (racemic) [ESC1002626]	6.34	95	1.6	91	−1	–
COc1cccc(-c2ccccc2[C@@H]2CCCN2C(=O)c2snc(Cl)c2Cl)c1 (racemic) [ESC1002627]	< 4.70	5	–	–	–	–
COc1cccc(-c2ccccc2[C@@H]2CCCN2C(=O)c2nccn2C)c1 (racemic) [ESC1002661]	< 4.70	7	–	–	–	–
COc1cc(OC)cc(-c2ccccc2[C@@H]2CCCN2C(=O)c2sccc2Cl)c1 (racemic) [ESC1002662]	6.22	92	1.2	92	−1	–
COc1ccc(-c2ccccc2[C@@H]2CCCN2C(=O)c2sccc2Cl)cc1OC (racemic) [ESC1002663]	6.24	93	1.1	95	−8	–
CCOc1cccc(-c2ccccc2[C@@H]2CCCN2C(=O)c2sccc2Cl)c1 (racemic) [ESC1002664]	6.38	92	1.2	92	0	–
COc1cc(-c2ccccc2[C@@H]2CCCN2C(=O)c2sccc2Cl)ccn1 (racemic) [ESC1002665]	6.22	95	1	97	−3	–
O=C(c1sccc1Cl)N1CCCC1c1ccccc1-c1cccc(O)c1 (racemic) [ESC1002666, (3-chlorothiophen-2-yl)(2-(3′-hydroxy-[1,1′-biphenyl]-2-yl)pyrrolidin-1-yl)methanone]	7.23	99	1.1	98	0	–
COc1cccc(-c2ccccc2[C@@H]2CCCN2Cc2sccc2F)c1 (racemic) [ESC1002695]	< 4.70	1	–	–	–	lost all activity
O=C(c1sccc1Cl)N1CCC[C@H]1c1ccccc1-c1ccc(O)cc1 (racemic) [ESC1002696]	6.52	97	1.2	97	1	–

Compound	pEC50	Max. Effect (%)	Hill Slope	Max. Fit	Min. Fit	17β-HSD10 / ABAD activity in words (SAR discussion)
O=C(c1sccc1Cl)N1CCC[C@H]1c1ccccc1-c1ccnc(O)c1 (racemic) [ESC1002697]	< 4.70	43	–	–	–	less active
O=C(c1sccc1Cl)N1CCC[C@H]1c1ccccc1-c1cncnc1 (racemic) [ESC1002698]	5.13	59	1.1	71	1	–
COc1cc(-c2ccccc2[C@@H]2CCCN2C(=O)c2sccc2Cl)ccc1F (racemic) [ESC1002699]	6.58	97	1.2	96	5	–
COc1cc(-c2ccccc2[C@@H]2CCCN2C(=O)c2sccc2Cl)ccc1C (racemic) [ESC1002700]	6.40	93	1.4	92	−2	–
O=C(c1sccc1Cl)N1CCC[C@H]1c1ccccc1-c1ccc2[nH]ncc2c1 (racemic) [ESC1002701]	6.54	99	1.2	96	0	–
O=C(c1sccc1Cl)N1CCC[C@H]1c1ccccc1-c1cccc2[nH]ncc12 (racemic) [ESC1002702]	5.90	91	0.91	98	−9	less active
Cn1cc(-c2ccccc2[C@@H]2CCCN2C(=O)c2sccc2Cl)cn1 (racemic) [ESC1002704]	5.97	98	1	103	−10	–
O=C(c1sccc1Cl)N1CCC[C@H]1c1ccccc1-c1ccc(F)c(O)c1 (racemic) [ESC1002775]	7.31	100	1.2	96	0	–
O=C(c1sccc1Cl)N1CCC[C@H]1c1ccccc1-c1cc(O)cc(F)c1 (racemic) [ESC1002776]	7.39	99	1	96	−1	–
Cc1ccsc1C(=O)N1CCC[C@H]1c1ccccc1-c1cccc(C(F)(F)F)c1 (racemic) [ESC1002789]	–	11	–	–	–	–
Cc1ccsc1C(=O)N1CCC[C@H]1c1ccccc1-c1cccc(C(F)(F)F)c1 (racemic) [ESC1002790]	–	93	1.2	93	−1	–
COc1cccc(-c2ccccc2[C@H]2CCCN2C(=O)c2sccc2C)c1 (single isomer, unassigned) [ESC1002420]	< 4.70	28	–	–	–	–
COc1cccc(-c2ccccc2[C@@H]2CCCN2C(=O)c2sccc2C)c1 (single isomer, unassigned) [ESC1002421]	6.73	97	1.6	95	11	–
O=C(c1sccc1Cl)N1CCC[C@H]1c1ccccc1-c1cccc(O)c1 (single isomer, unassigned) [ESC1002754]	< 4.70	20	–	–	–	–
COc1cccc(-c2ccccc2[C@@H]2CCCN2C(=O)c2[nH]ncc2Cl)c1 (single isomer, unassigned) [ESC1002756]	< 4.70	24	–	–	–	–
Cc1ccsc1C(=O)N1CCC[C@H]1c1ccccc1-c1ccccc1Cl (single isomer, unassigned) [ESC1002766]	< 4.70	14	–	–	–	–
